{"source": "paper PMC4170816", "about": "(Journal of Chemical Information and Modeling, 2014)", "key": {"[1]": {"molecular_target": "CB2-WT (Homo sapiens, UniProt P34972)", "sequence (P34972 whole entry)": "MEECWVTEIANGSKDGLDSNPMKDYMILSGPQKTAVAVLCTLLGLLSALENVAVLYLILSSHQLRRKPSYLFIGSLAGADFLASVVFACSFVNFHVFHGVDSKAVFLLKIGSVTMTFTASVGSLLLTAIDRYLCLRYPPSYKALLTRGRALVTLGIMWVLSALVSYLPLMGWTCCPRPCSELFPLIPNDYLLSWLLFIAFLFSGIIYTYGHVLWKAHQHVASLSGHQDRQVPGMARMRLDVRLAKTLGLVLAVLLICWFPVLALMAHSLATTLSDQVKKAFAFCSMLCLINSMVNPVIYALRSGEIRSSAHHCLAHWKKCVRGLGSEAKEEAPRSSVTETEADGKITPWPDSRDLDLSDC", "assay": "[3H]CP55940 binding to CB2-WT in buffer supplemented with NaCl", "details": "NaCl up to 1000 mM; CB2-WT transiently expressed on CHO cell membrane"}, "[2]": {"molecular_target": "CB1", "details": "read-out: Ki to the CB1 receptor; cited from earlier work"}, "[3]": {"tested_on": "A2AAR", "details": "sodium 150 mM; cited from earlier work"}, "[4]": {"molecular_target": "wild-type CB2 (WT) (Homo sapiens, UniProt P34972)", "sequence (P34972 whole entry)": "as above", "assay": "Competition binding assay, displacement of [3H]-CP-55940, membranes of CHO cells"}, "[5]": {"molecular_target": "δ-opioid receptor", "details": "cited from earlier work"}}, "note": "pKi: −log10 of the molar value. Like-named read-outs stand apart in the source and are kept apart here.", "data": [{"molecule": "[Cl-].[Na+]", "note": "[Na^+, NaCl]", "values": [{"measurement": "effect on the binding of the CB2 agonist [3H]CP55940", "setting": "[1]", "value": "did not have any effect"}]}, {"molecule": "Cc1ccc(Cn2nc(C(=O)N[C@@H]3C(C)(C)[C@@H]4CC[C@@]3(C)C4)cc2-c2ccc(Cl)c(C)c2)cc1", "note": "[SR144528, 5-(4-chloro-3-methylphenyl)-1-[(4-methylphenyl)methyl]-N-[(1S,2S,4R)-1,3,3-trimethylbicyclo[2.2.1]hept-2-yl]-1H-pyrazole-3-carboxamide]", "values": [{"measurement": "pKi", "setting": "[2]", "value": 6.40}]}, {"molecule": "CCNC(=O)[C@H]1O[C@@H](n2cnc3c(N)ncnc32)[C@H](O)[C@@H]1O", "note": "[[^3H]NECA, 5′-N-ethylcarboxamidoadenosine]", "values": [{"measurement": "binding detected in presence of sodium", "setting": "[3]", "value": 25, "unit": "%"}]}, {"molecule": "N=C(N)NC(=O)c1nc(Cl)c(N)nc1N", "note": "[amiloride]", "values": [{"measurement": "pKi", "setting": "[4]; Ki value at CB2, competition binding, no added NaCl", "value": 3.31}, {"measurement": "pKi", "setting": "[4]; Ki value at CB2 with 150 mM NaCl, with 150 mM NaCl", "value": 3.51}]}, {"molecule": "[D-Ala^2, D-Leu^5]-Enkephalin [[^3H]DADLE]", "values": [{"measurement": "pKi", "setting": "[5]; read-out: Ki value with 0 mM NaCl, 0 mM NaCl", "value": 6.55}, {"measurement": "pKi", "setting": "[5]; read-out: Ki value with 140 mM NaCl, 140 mM NaCl", "value": 5.55}]}]}
